“Also recorded” adds a separate entry of the source. Like-named read-outs stand apart in the source and are kept apart here. Bridge positions count the residues as written; N and C are the ends. Square brackets hold non-standard residues; d marks the D form. Peptide text beside a SMILES is read from it. pGlu = O=C1CC[C@@H](C(=O)O)N1
Tests used:
zebrafish αβδ nAChR [1] = type: cell-based, zebrafish (Danio rerio)
zebrafish αβδ nAChR [2] = type: cell-based, zebrafish (Danio rerio); remark: listed apart in the source

Structure (SMILES): CC[C@H](C)[C@@H]1NC(=O)[C@H](CC(C)C)NC(=O)[C@H](CCCNC(=N)N)NC(=O)[C@H](CC(=O)O)NC(=O)[C@H](CCCNC(=N)N)NC(=O)[C@H](Cc2ccccc2)NC(=O)[C@H](Cc2ccc(O)cc2)NC(=O)[C@H](CC(C)C)NC(=O)[C@@H]2CCCN2C(=O)[C@@H]2CSSC[C@@H](C(=O)O)NC(=O)[C@@H]3CSSC[C@H](NC(=O)[C@H](CCCCN)NC(=O)[C@@H]4CCC(=O)N4)C(=O)N[C@@H](CSSC[C@H](NC1=O)C(=O)N1CCC[C@H]1C(=O)N3)C(=O)N[C@@H](CO)C(=O)NCC(=O)NCC(=O)N[C@@H](CO)C(=O)N2 [αM-MIIIJ] ([pGlu]KCCSGGSCPLYFRDRLICPCC-OH; disulfide 3-21, 4-19, 9-22)
- affinity of αβδ relative to αβδε and αβδγ (zebrafish αβδ nAChR [1]): about a factor of two higher
- koff (zebrafish αβδ nAChR [1]): 0.0417 s⁻¹
- recovery of IACh on washout (zebrafish αβδ nAChR [1]): recovered almost completely within a minute
- reversibility of block (zebrafish αβδ nAChR [1]): readily reversible
- IC50 (zebrafish αβδ nAChR [1]; read-out: IC50): 33 nM
- IC50 (zebrafish αβδ nAChR [1]; read-out: IC50 (range statement)): ~50 nM
- protection against α-BgTX block (zebrafish αβδ nAChR [2]): largely protected
- protection against α-EI block (zebrafish αβδ nAChR [2]): rapidly reversed upon toxin washout; also recorded: completely protected
